Source: publication PMC6631349 (Xenobiotica; the fate of foreign compounds in biological …, 2014)
Read-outs that look alike come from different tables or passages of the source.

Assays:
UGT1A3 = molecular target: T1, UGT1A3 (Homo sapiens, UniProt P35503); assay: UGT1A3 supersomes-catalyzed 4-MU glucuronidation inhibition; settings: recombinant human UGT, mean of triplicate
T1 sequence (P35503 29-534): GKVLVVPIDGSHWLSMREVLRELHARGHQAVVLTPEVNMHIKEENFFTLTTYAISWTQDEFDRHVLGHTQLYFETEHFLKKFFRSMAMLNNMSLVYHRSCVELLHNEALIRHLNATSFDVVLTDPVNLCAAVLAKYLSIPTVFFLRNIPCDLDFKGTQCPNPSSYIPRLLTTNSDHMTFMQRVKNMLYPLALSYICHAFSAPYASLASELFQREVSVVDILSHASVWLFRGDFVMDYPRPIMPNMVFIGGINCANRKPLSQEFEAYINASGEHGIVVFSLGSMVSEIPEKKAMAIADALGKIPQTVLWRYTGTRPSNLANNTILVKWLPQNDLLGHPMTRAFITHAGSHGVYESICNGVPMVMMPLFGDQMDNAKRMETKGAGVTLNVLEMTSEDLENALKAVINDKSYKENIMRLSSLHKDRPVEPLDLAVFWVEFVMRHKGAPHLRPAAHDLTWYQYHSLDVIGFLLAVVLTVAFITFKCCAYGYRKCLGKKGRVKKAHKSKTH

UGT2B4 = molecular target: T2, UGT2B4 (Homo sapiens, UniProt P06133); assay: UGT2B4 supersomes-catalyzed 4-MU glucuronidation inhibition; settings: recombinant human UGT, mean of triplicate
T2 sequence (P06133 24-528): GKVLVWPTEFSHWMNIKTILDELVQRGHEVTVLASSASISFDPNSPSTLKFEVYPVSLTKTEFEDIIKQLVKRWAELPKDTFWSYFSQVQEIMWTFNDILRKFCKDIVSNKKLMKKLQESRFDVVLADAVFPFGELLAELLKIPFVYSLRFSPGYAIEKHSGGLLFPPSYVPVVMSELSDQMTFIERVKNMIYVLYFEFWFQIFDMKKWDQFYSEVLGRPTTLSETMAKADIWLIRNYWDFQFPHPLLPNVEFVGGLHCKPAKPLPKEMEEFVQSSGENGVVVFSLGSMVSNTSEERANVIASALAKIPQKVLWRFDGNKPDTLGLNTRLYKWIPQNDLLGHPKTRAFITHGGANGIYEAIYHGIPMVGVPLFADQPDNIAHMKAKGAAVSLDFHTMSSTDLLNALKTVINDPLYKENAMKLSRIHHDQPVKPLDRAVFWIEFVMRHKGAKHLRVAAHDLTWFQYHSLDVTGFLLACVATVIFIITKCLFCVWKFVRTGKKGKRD

UGT1A8 = molecular target: T3, UGT1A8 (Homo sapiens, UniProt Q9HAW9); settings: recombinant human UGT, mean of triplicate
T3 sequence (Q9HAW9 26-530): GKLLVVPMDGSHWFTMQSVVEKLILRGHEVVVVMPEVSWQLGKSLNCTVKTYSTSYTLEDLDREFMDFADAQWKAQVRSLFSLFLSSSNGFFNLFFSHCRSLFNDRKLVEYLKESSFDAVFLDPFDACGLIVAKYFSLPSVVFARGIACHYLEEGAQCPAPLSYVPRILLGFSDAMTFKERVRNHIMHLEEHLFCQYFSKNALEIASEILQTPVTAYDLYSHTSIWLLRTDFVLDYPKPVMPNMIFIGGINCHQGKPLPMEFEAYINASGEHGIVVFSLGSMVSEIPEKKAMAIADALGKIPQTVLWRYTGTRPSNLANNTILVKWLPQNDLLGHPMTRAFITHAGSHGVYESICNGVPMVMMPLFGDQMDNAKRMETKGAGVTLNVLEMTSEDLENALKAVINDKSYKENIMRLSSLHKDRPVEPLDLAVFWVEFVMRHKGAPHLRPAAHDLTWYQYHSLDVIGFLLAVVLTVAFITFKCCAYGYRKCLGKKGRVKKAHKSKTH

UGT1A6 = molecular target: T4, UGT1A6 (Homo sapiens, UniProt P19224); settings: for residual activity 1A6: recombinant human UGT, mean of triplicate; for inhibition percentage of UGT1A6 activity: 50 μM
T4 sequence (P19224 27-532): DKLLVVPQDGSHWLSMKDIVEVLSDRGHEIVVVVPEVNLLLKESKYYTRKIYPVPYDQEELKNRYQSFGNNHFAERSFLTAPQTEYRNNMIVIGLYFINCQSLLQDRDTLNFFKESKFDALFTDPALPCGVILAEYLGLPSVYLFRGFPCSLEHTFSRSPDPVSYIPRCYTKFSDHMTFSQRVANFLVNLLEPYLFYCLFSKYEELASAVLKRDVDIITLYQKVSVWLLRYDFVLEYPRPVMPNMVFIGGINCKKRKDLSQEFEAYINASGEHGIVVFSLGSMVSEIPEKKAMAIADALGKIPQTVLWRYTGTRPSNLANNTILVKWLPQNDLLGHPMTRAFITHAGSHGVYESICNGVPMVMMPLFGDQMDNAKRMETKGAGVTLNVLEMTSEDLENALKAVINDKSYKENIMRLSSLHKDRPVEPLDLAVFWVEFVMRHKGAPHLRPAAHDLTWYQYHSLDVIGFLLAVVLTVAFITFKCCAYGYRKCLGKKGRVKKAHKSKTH

UGT2B7 = molecular target: T5, UGT2B7 (Homo sapiens, UniProt P16662); assay: UGT2B7 supersomes-catalyzed 4-MU glucuronidation inhibition; settings: recombinant human UGT, mean of triplicate
T5 sequence (P16662 24-529): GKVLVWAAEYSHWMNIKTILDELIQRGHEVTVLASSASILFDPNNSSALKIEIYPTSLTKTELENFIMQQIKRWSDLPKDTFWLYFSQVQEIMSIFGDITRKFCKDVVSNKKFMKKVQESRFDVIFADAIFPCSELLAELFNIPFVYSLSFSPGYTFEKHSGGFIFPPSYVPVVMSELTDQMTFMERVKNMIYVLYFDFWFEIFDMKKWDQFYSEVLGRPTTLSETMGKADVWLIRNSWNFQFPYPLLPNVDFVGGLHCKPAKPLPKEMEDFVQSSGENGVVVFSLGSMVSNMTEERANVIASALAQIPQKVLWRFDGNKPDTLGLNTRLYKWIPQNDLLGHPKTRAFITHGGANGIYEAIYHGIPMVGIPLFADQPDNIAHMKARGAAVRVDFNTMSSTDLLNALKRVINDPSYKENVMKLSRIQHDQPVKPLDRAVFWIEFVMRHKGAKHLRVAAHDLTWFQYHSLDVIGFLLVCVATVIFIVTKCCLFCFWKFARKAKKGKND

Row | residual activity 1A3 (UGT1A3; 50 μM PC components) [%] | residual activity 2B4 (UGT2B4; 50 μM PC components) [%] | residual activity 1A8 (UGT1A8; 50 μM PC components) [%] | residual activity 1A6 (UGT1A6; 50 μM PC components) [%] | residual activity 2B7 (UGT2B7; 50 μM PC components) [%] | residual activity 1A3 (UGT1A3; 50 μM LPC components) [%] | residual activity 2B4 (UGT2B4; 50 μM LPC components) [%] | residual activity 1A8 (UGT1A8; 50 μM LPC components) [%] | residual activity 1A6 (UGT1A6; 50 μM LPC components) [%] | residual activity 2B7 (UGT2B7; 50 μM LPC components) [%] | inhibition kinetic type towards UGT1A6 (UGT1A6; Dixon and Lineweaver-Burk plots, 4-MU glucuronidation) | SMILES | inhibition percentage of UGT1A6 activity (UGT1A6) [%]
1 | 92.6 | 185.1 | 107.6 | 53.7 | 60.3 |  |  |  |  |  |  | CCCCCCCCCCCCCCCC(=O)OC[C@H](COP(=O)([O-])OCC[N+](C)(C)C)OC(=O)CCCCCCCCCCCCCCC [PC 16:0, 16:0] | 
2 | 83.7 | 93.4 | 84.1 | 50.7 | 36.0 |  |  |  |  |  |  | CCCCCCCCCCCCCCCCCC(=O)OC[C@H](COP(=O)([O-])OCC[N+](C)(C)C)OC(=O)CCCCCCCCCCCCCCCCC [PC 18:0, 18:0] | 
3 | 110.7 | 193.8 | 114.3 | 56.5 | 81.4 |  |  |  |  |  |  | CCCCCCCCCCCCC(=O)OC[C@H](COP(=O)([O-])OCC[N+](C)(C)C)OC(=O)CCCCCCCCCCCC [PC 13:0, 13:0] | 
4 |  |  |  |  |  | 88.1 | 239.4 | 101.6 | 83.8 | 79.9 |  | CCCCCCCCCCCCC(=O)OC[C@@H](O)COP(=O)([O-])OCC[N+](C)(C)C [LPC 13:0] | 
5 |  |  |  |  |  | 80.4 | 183.5 | 101.1 | 71.0 | 73.8 |  | CCCCCCC(=O)OCC(O)COP(=O)([O-])OCC[N+](C)(C)C (stereo not drawn) [LPC 7:0] | 
6 |  |  |  |  |  | 119.0 | 333.4 | 2.2 | 8.5 | 81.5 |  | CCCCCCCCCCCCCCCCC(=O)OC[C@@H](O)COP(=O)([O-])OCC[N+](C)(C)C [LPC 17:0] | 
7 | 80.4 | 168.3 | 93.5 | 98.9 | 69.5 |  |  |  |  |  |  | CCCCCCCCCCCCCCCCCCCCCCC(=O)OC[C@H](COP(=O)([O-])OCC[N+](C)(C)C)OC(=O)CCCCCCCCCCCCCCCCCCCCCC [PC 23:0, 23:0] | 
8 | 93.0 | 182.7 | 114.1 | 40.8 | 85.8 |  |  |  |  |  |  | CCCCCCCCCCCC(=O)OC[C@H](COP(=O)([O-])OCC[N+](C)(C)C)OC(=O)CCCCCCCCCCC [PC 12:0, 12:0] | 
9 |  |  |  |  |  | 52.8 | 152.6 | 1.6 | 2.9 | 43.9 | competitive inhibition | CCCCCCCCCCCCCCC(=O)OC[C@@H](O)COP(=O)([O-])OCC[N+](C)(C)C [LPC 15:0] | 
10 |  |  |  |  |  | 75.9 | 217.6 | 124.0 | 65.7 | 78.0 |  | CCCCCCCCCCC(=O)OC[C@@H](O)COP(=O)([O-])OCC[N+](C)(C)C [LPC 11:0] | 
11 | 81.4 | 175.4 | 92.1 | 49.1 | 35.5 |  |  |  |  |  |  | CCCCCCCCCCCCCCCCC(=O)OC[C@H](COP(=O)([O-])OCC[N+](C)(C)C)OC(=O)CCCCCCCCCCCCCCCC [PC 17:0, 17:0] | 

Row | SMILES | residual activity 1A3 (UGT1A3; 50 μM PC components) [%] | residual activity 2B4 (UGT2B4; 50 μM PC components) [%] | residual activity 1A8 (UGT1A8; 50 μM PC components) [%] | residual activity 1A6 (UGT1A6; 50 μM PC components) [%] | residual activity 2B7 (UGT2B7; 50 μM PC components) [%] | residual activity 1A3 (UGT1A3; 50 μM LPC components) [%] | residual activity 2B4 (UGT2B4; 50 μM LPC components) [%] | residual activity 1A8 (UGT1A8; 50 μM LPC components) [%] | residual activity 1A6 (UGT1A6; 50 μM LPC components) [%] | residual activity 2B7 (UGT2B7; 50 μM LPC components) [%] | inhibition kinetic type towards UGT1A6 (UGT1A6; Dixon and Lineweaver-Burk plots, 4-MU glucuronidation) | inhibition percentage of UGT1A6 activity (UGT1A6) [%]
12 | CC/C=C\C/C=C\C/C=C\C/C=C\C/C=C\C/C=C\CCC(=O)O[C@H](COC(=O)CCCCCCCCCCCCCCCCC)COP(=O)([O-])OCC[N+](C)(C)C [PC 18:0, 22:6, 1-stearoyl-2-docosahexaenoyl-sn-glycero-3-phosphocholine] | 90.0 | 183.2 | 116.1 | 88.8 | 73.6 |  |  |  |  |  |  | 
13 | CCCCCCCCCC(=O)OC[C@H](COP(=O)([O-])OCC[N+](C)(C)C)OC(=O)CCCCCCCCC [PC 10:0, 10:0] | 107.4 | 168.4 | 59.3 | 23.2 | 86.2 |  |  |  |  |  |  | 76.8
14 | CCCCCCCC(=O)OCC(O)COP(=O)([O-])OCC[N+](C)(C)C (stereo not drawn) [LPC 8:0] |  |  |  |  |  | 80.3 | 185.0 | 102.7 | 74.2 | 70.1 |  | 
15 | CCCCCCC(=O)OC[C@H](COP(=O)([O-])OCC[N+](C)(C)C)OC(=O)CCCCCC [PC 7:0, 7:0] | 109.9 | 186.9 | 106.1 | 50.7 | 64.5 |  |  |  |  |  |  | 
16 | CCCCCCCC(=O)OC[C@H](COP(=O)([O-])OCC[N+](C)(C)C)OC(=O)CCCCCCC [PC 8:0, 8:0] | 119.1 | 173.1 | 78.3 | 25.6 | 71 |  |  |  |  |  |  | 74.4
17 | CCCCCC(=O)OC[C@@H](O)COP(=O)([O-])OCC[N+](C)(C)C [LPC 6:0] |  |  |  |  |  | 84.4 | 183.6 | 108.0 | 72.7 | 70.0 |  | 
18 | CCCCCCCCCC(=O)OC[C@@H](O)COP(=O)([O-])OCC[N+](C)(C)C [LPC 10:0] |  |  |  |  |  | 75.9 | 208.4 | 100.7 | 65.7 | 77.3 |  | 
